Read-outs that look alike come from different tables or passages of the source.
Columns and labels:
HPK1 = HPK1 (Homo sapiens, UniProt Q92918); assay: HPK1 Biochemical Assay (ADP-Glo luminescence; low ATP 10 μM or high ATP 200 μM)
[1] = system: p-SLP-76 (Ser376) in Jurkat cells; assay: pSLP76 Cellular Assay (AlphaLISA SureFire Ultra p-SLP-76 (Ser376), anti-CD3 activated Jurkat cells); assay type: cell-based; details: Homo sapiens; Jurkat cells, anti-CD3 stimulation, pSLP76; read-out: Cellular Potency
Protocol: pSLP76 cellular assay was performed using Jurkat cells and the AlphaLISA SureFire Ultra p-SLP-76 (Ser376) Assay Kit (PerkinElmer). Dose-response assays were performed in Greiner® Low Volume 384-well assay plates containing 200 nL of 22 serial 2-fold compound dilutions using Bravo and Echo. Jurkat cells were grown in RPMI-1640 supplemented with 10% FBS and PSG. The day prior to the assay, the cells were collected, and serum starved overnight in Opti-MEM. The day of the assay, the cells were collected and resuspended in HBSS. 100,000 cells/well were added to the compound plates and after a short spin, the plates were incubated at 37° C. for 1 h. The cells were activated by adding 10 μL of 0.025 mg/ml anti-CD3. Plates were then incubated at 37° C. for 45 min. Stimulation was terminated by adding […], followed by a brief centrifugation and 60 min of shaking at 300 rpm. Cell lysates (10 μL) were transferred to 384-well White Opti-plates and the samples were processed according to the manufacturer's directions. The fluorescence signal from pSLP76 was measured at 570 nm using Envision plate reader. IC50 values were determined by fitting the data to a standard 4-parameter logistic equation. The results are summarized in the Cellular Potency columns in Tables 4 and 5 below (Cellular Potency).

[2] = 2 nM HPK1, 10 μM ATP, read-out: Biochemical Potency (low ATP)

HPK1, sequence (Q92918 whole entry, species assumed): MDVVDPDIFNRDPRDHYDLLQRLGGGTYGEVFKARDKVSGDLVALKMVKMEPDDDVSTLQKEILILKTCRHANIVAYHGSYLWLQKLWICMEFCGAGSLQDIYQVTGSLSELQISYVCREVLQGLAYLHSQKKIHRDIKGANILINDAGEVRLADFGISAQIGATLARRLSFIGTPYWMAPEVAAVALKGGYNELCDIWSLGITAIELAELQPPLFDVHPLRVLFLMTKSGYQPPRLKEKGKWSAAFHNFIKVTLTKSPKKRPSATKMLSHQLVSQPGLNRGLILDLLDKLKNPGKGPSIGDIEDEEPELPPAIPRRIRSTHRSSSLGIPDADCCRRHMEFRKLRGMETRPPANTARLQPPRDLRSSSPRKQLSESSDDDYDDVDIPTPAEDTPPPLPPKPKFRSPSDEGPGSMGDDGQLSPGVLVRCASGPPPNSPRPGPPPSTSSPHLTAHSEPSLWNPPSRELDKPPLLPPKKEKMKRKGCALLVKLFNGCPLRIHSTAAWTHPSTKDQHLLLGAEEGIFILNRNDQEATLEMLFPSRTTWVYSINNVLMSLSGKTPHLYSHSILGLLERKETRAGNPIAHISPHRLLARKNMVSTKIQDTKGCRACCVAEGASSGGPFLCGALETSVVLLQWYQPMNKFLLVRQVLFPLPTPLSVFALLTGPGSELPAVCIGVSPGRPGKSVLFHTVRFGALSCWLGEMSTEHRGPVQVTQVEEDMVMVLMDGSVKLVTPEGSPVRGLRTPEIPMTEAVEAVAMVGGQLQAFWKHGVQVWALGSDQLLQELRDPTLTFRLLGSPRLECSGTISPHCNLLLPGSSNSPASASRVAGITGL

| SMILES | IC50 (HPK1; [2]) | IC50 [1] | IC50 (HPK1; 5 nM HPK1, 200 μM ATP, read-out: Biochemical Potency (high ATP)) |
| --- | --- | --- | --- |
| Cc1ccc(Nc2cc3nc(-c4c(F)cccc4F)sc3cn2)nc1CN(C)C [Example 46, N-[2-(2,6-Difluorophenyl)-[1,3]thiazolo[5,4-c]pyridin-6-yl]-6-[(dimethylamino)methyl]-5-methylpyridin-2-amine] | < 0.1 µM | 1 to 5 µM |  |
| Cc1ccc(Nc2cc3nc(-c4ccnnc4)sc3cn2)nc1CN1CCCC1 [Example 57, 5-Methyl-N-[2-(pyridazin-4-yl)-[1,3]thiazolo[5,4-c]pyridin-6-yl]-6-[(pyrrolidin-1-yl)methyl]pyridin-2-amine] | < 0.1 µM | 1 to 5 µM |  |
| Cc1cccnc1-c1nc2cc(Nc3ccc(Cl)c(CN4CCCC4)n3)ncc2s1 [Example 60] | < 0.1 µM | > 5 µM |  |
| Cc1cccnc1-c1nc2cc(Nc3ccc(N4CCOCC4)c(CN4CCCC4)n3)ncc2s1 [Example 63, N-[2-(3-Methylpyridin-2-yl)-[1,3]thiazolo[5,4-c]pyridin-6-yl]-5-(morpholin-4-yl)-6-[(pyrrolidin-1-yl)methyl]pyridin-2-amine] | < 0.1 µM | 0.1 to 1 µM |  |
| Cc1cc(NCc2nccn2C)nc(Nc2cc3nc(-c4ccnc(C)c4)sc3cn2)c1 [Example 76, 4-Methyl-N2-[(1-methyl-1H-imidazol-2-yl)methyl]-N6-[2-(2-methylpyridin-4-yl)-[1,3]thiazolo[5,4-c]pyridin-6-yl]pyridine-2,6-diamine] | < 0.1 µM | 1 to 5 µM |  |
| COc1cccc(F)c1-c1nc2cc(Nc3cccc(N4CC5CCC4CN5C)n3)ncc2s1 (stereo not shown) [Example 79, N-[2-(2-Fluoro-6-methoxyphenyl)-[1,3]thiazolo[5,4-c]pyridin-6-yl]-6-{5-methyl-2,5-diazabicyclo[2.2.2]octan-2-yl}pyridin-2-amine] | < 0.1 µM | 1 to 5 µM |  |
| COc1cccc(F)c1-c1nc2cc(Nc3cccc(N4C[C@@H]5C[C@H]4CN5C)n3)ncc2s1 [Example 80, N-[2-(2-Fluoro-6-methoxyphenyl)-[1,3]thiazolo[5,4-c]pyridin-6-yl]-6-[(1S,4S)-5-methyl-2,5-diazabicyclo[2.2.1]heptan-2-yl]pyridin-2-amine] | < 0.1 µM | 0.1 to 1 µM |  |
| COc1cccc(F)c1-c1nc2cc(Nc3cccc(N4CCN(C)CC4)n3)ncc2s1 [Example 81, N-[2-(2-Fluoro-6-methoxyphenyl)-[1,3]thiazolo[5,4-c]pyridin-6-yl]-6-(4-methylpiperazin-1-yl)pyridin-2-amine] | < 0.1 µM | 0.1 to 1 µM |  |
| c1cc(Nc2cc3nc(-n4cccn4)sc3cn2)nc(N2C[C@@H]3C[C@H]2CN3)c1 [Example 82, 6-[(1S,4S)-2,5-Diazabicyclo[2.2.1]heptan-2-yl]-N-[2-(1H-pyrazol-1-yl)-[1,3]thiazolo[5,4-c]pyridin-6-yl]pyridin-2-amine] | < 0.1 µM | < 0.1 µM |  |
| Cc1cc(-c2nc3cc(Nc4cccc(N5CCNCC5)n4)ncc3s2)ccn1 [Example 85, N-[2-(2-Methylpyridin-4-yl)-[1,3]thiazolo[5,4-c]pyridin-6-yl]-6-(piperazin-1-yl)pyridin-2-amine] | < 0.1 µM | 1 to 5 µM |  |
| Cc1cccnc1-c1nc2cc(Nc3cccc(N4CCNC5CC54)n3)ncc2s1 (stereo not shown) [Example 87, 6-{2,5-Diazabicyclo[4.1.0]heptan-2-yl}-N-[2-(3-methylpyridin-2-yl)-[1,3]thiazolo[5,4-c]pyridin-6-yl]pyridin-2-amine] | < 0.1 µM | 1 to 5 µM |  |
| CN1C[C@@H]2C[C@H]1CN2c1cccc(Nc2cc3nc(-c4cccnc4)sc3cn2)n1 [Example 89, 6-[(1S,4S)-5-Methyl-2,5-diazabicyclo[2.2.1]heptan-2-yl]-N-[2-(pyridin-3-yl)-[1,3]thiazolo[5,4-c]pyridin-6-yl]pyridin-2-amine] | < 0.1 µM | 0.1 to 1 µM |  |
| CN1C[C@@H]2C[C@H]1CN2c1cccc(Nc2cc3nc(-c4ncccc4C(F)(F)F)sc3cn2)n1 [Example 92, 6-[(1S,4S)-5-Methyl-2,5-diazabicyclo[2.2.1]heptan-2-yl]-N-{2-[3-(trifluoromethyl)pyridin-2-yl]-[1,3]thiazolo[5,4-c]pyridin-6-yl}pyridin-2-amine] | < 0.1 µM | 0.1 to 1 µM |  |
| CC(C)c1cccnc1-c1nc2cc(Nc3cccc(N4C[C@@H]5C[C@H]4CN5C)n3)ncc2s1 [Example 93, 6-[(1S,4S)-5-Methyl-2,5-diazabicyclo[2.2.1]heptan-2-yl]-N-{2-[3-(propan-2-yl)pyridin-2-yl]-[1,3]thiazolo[5,4-c]pyridin-6-yl}pyridin-2-amine] | < 0.1 µM | 0.1 to 1 µM |  |
| Cc1cc(-c2nc3cc(Nc4cccc(N5C[C@@H]6C[C@H]5CN6C)n4)ncc3s2)ccn1 [Example 96, 6-[(1S,4S)-5-Methyl-2,5-diazabicyclo[2.2.1]heptan-2-yl]-N-[2-(2-methylpyridin-4-yl)-[1,3]thiazolo[5,4-c]pyridin-6-yl]pyridin-2-amine] | < 0.1 µM | 0.1 to 1 µM | < 0.1 µM |

Now from value to compound:

| IC50 (HPK1; [2]) | IC50 [1] | IC50 (HPK1; 5 nM HPK1, 200 μM ATP, read-out: Biochemical Potency (high ATP)) | SMILES |
| --- | --- | --- | --- |
| < 0.1 µM | 1 to 5 µM |  | Cc1ccc(Nc2cc3nc(-c4ncccc4C)sc3cn2)nc1CN1CCC[C@@H]1CO [Example 49, [(2R)-1-[(3-Methyl-6-{[2-(3-methylpyridin-2-yl)-[1,3]thiazolo[5,4-c]pyridin-6-yl]amino}pyridin-2-yl)methyl]pyrrolidin-2-yl]methanol] |
| < 0.1 µM | > 5 µM |  | Cc1ccc(Nc2cc3nc(-c4ncccc4C)sc3cn2)nc1CN1CC[C@@H](C#N)C1 [Example 54, 6 (3R)-1-[(3-Methyl-6-{[2-(3-methylpyridin-2-yl)-[1,3]thiazolo[5,4-c]pyridin-6-yl]amino}pyridin-2-yl)methyl]pyrrolidine-3-carbonitrile] |
| < 0.1 µM | 0.1 to 1 µM |  | Cc1cccnc1-c1nc2cc(Nc3ccc(C)c(N4C[C@@H](N)C[C@H]4CO)n3)ncc2s1 [Example 65, [(2S,4S)-4-Amino-1-(3-methyl-6-{[2-(3-methylpyridin-2-yl)-[1,3]thiazolo[5,4-c]pyridin-6-yl]amino}pyridin-2-yl)pyrrolidin-2-yl]methanol] |
| < 0.1 µM | 1 to 5 µM |  | Cc1cccnc1-c1nc2cc(Nc3cccc(N4C[C@@H](N)C[C@H]4CO)n3)ncc2s1 [Example 66, [(2S,4S)-4-Amino-1-(6-{[2-(3-methylpyridin-2-yl)-[1,3]thiazolo[5,4-c]pyridin-6-yl]amino}pyridin-2-yl)pyrrolidin-2-yl]methanol] |
| < 0.1 µM | > 5 µM |  | Cc1cccnc1-c1nc2cc(Nc3ccc(C)c(N4C[C@H](N)C[C@H]4CO)n3)ncc2s1 [Example 69, [(2S,4R)-4-Amino-1-(3-methyl-6-{[2-(3-methylpyridin-2-yl)-[1,3]thiazolo[5,4-c]pyridin-6-yl]amino}pyridin-2-yl)pyrrolidin-2-yl]methanol] |
| < 0.1 µM | 0.1 to 1 µM |  | Cc1cccnc1-c1nc2cc(Nc3cccc(N4C[C@H](N)C[C@H]4CO)n3)ncc2s1 [Example 70, [(2S,4R)-4-Amino-1-(6-{[2-(3-methylpyridin-2-yl)-[1,3]thiazolo[5,4-c]pyridin-6-yl]amino}pyridin-2-yl)pyrrolidin-2-yl]methanol] |
| < 0.1 µM | 1 to 5 µM |  | Cc1cccnc1-c1nc2cc(Nc3ccc(C)c(N4CCC[C@H](N)C4)n3)ncc2s1 [Example 71, 6-[(3S)-3-Aminopiperidin-1-yl]-5-methyl-N-[2-(3-methylpyridin-2-yl)-[1,3]thiazolo[5,4-c]pyridin-6-yl]pyridin-2-amine] |
| < 0.1 µM | > 5 µM |  | Cc1cccnc1-c1nc2cc(Nc3ccc(C)c(N4CC[C@@H](N)C4)n3)ncc2s1 [Example 74, 6-[(3R)-3-Aminopyrrolidin-1-yl]-5-methyl-N-[2-(3-methylpyridin-2-yl)-[1,3]thiazolo[5,4-c]pyridin-6-yl]pyridin-2-amine] |
| < 0.1 µM | 0.1 to 1 µM |  | Cc1cccnc1-c1nc2cc(Nc3cccc(N4C[C@@H]5C[C@H]4CN5)n3)ncc2s1 [Example 78, 6-[(1S,4S)-2,5-Diazabicyclo[2.2.1]heptan-2-yl]-N-[2-(3-methylpyridin-2-yl)-[1,3]thiazolo[5,4-c]pyridin-6-yl]pyridin-2-amine] |
| < 0.1 µM | 0.1 to 1 µM |  | Cc1cccnc1-c1nc2cc(Nc3ccc(F)c(N4C[C@@H]5C[C@H]4CN5)n3)ncc2s1 [Example 83, 6-[(1S,4S)-2,5-Diazabicyclo[2.2.1]heptan-2-yl]-5-fluoro-N-[2-(3-methylpyridin-2-yl)-[1,3]thiazolo[5,4-c]pyridin-6-yl]pyridin-2-amine] |
| < 0.1 µM | 0.1 to 1 µM |  | Cc1cccnc1-c1nc2cc(Nc3ccc(C)c(N4C[C@@H]5C[C@H]4CN5)n3)ncc2s1 [Example 84, 6-[(1S,4S)-2,5-Diazabicyclo[2.2.1]heptan-2-yl]-5-methyl-N-[2-(3-methylpyridin-2-yl)-[1,3]thiazolo[5,4-c]pyridin-6-yl]pyridin-2-amine] |
| < 0.1 µM | 0.1 to 1 µM |  | Cc1cccnc1-c1nc2cc(Nc3cccc(N4C[C@@H]5C[C@H]4CN5C)n3)ncc2s1 [Example 90, 6-[(1S,4S)-5-Methyl-2,5-diazabicyclo[2.2.1]heptan-2-yl]-N-[2-(3-methylpyridin-2-yl)-[1,3]thiazolo[5,4-c]pyridin-6-yl]pyridin-2-amine] |

— patent US12649751B2 (Arcus Biosciences, Inc., priority 2022, dated 2026)
